Measurements taken from article PMC4429609 (Journal of medicinal chemistry, 2012).

Assays:
Experiment in all cases: biochemical
AKT1 = AKT1 (Homo sapiens, UniProt P31749); details: read-out: % Inhibition at 1 μM, AKT1
CDK1/cyclin B = CDK1/cyclin B (Homo sapiens, UniProt P06493); details: read-out: % Inhibition at 1 μM, CDK1/cyclin B
CDK2/cyclin A = CDK2/cyclin A (Homo sapiens, UniProt P24941); details: read-out: % Inhibition at 1 μM, CDK2/cyclin A
CHK1 = CHK1 (Homo sapiens, UniProt O14757); details: read-out: % Inhibition at 1 μM, CHK1
Sequence of CHK1 (O14757 whole entry): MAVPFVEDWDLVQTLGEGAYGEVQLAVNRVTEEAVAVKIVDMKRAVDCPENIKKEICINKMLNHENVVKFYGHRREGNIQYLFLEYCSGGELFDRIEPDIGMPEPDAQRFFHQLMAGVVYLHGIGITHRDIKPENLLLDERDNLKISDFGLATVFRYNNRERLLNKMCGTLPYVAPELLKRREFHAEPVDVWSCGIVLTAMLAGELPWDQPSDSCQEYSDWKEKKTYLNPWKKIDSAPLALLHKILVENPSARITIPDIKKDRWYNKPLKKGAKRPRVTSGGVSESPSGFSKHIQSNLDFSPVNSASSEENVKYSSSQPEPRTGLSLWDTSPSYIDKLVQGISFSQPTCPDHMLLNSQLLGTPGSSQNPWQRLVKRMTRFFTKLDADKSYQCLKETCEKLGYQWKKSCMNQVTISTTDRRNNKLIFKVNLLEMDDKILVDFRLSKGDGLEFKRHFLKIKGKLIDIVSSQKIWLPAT

CHK2 = CHK2 (Homo sapiens, UniProt O96017); details: read-out: % Inhibition at 1 μM, CHK2
Sequence of CHK2 (O96017 whole entry, looked up): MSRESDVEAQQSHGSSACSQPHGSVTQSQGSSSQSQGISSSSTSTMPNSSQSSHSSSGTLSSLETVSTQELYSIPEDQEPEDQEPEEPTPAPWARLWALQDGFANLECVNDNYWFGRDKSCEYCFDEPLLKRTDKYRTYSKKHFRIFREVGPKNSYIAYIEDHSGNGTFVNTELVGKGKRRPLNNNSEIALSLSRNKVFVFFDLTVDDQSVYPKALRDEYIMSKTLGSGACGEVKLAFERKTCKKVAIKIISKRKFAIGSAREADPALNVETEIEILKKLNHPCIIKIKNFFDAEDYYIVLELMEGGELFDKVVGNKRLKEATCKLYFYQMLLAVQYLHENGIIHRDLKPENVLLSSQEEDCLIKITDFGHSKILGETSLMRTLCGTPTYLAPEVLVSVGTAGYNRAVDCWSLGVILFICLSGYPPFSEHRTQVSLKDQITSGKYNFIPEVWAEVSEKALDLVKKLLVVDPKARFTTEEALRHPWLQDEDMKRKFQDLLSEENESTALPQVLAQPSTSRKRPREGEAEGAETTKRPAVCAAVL

NEK11 = NEK11 (Homo sapiens, UniProt Q8NG66); details: read-out: % Inhibition at 1 μM, NEK11
Sequence of NEK11 (Q8NG66 whole entry, looked up): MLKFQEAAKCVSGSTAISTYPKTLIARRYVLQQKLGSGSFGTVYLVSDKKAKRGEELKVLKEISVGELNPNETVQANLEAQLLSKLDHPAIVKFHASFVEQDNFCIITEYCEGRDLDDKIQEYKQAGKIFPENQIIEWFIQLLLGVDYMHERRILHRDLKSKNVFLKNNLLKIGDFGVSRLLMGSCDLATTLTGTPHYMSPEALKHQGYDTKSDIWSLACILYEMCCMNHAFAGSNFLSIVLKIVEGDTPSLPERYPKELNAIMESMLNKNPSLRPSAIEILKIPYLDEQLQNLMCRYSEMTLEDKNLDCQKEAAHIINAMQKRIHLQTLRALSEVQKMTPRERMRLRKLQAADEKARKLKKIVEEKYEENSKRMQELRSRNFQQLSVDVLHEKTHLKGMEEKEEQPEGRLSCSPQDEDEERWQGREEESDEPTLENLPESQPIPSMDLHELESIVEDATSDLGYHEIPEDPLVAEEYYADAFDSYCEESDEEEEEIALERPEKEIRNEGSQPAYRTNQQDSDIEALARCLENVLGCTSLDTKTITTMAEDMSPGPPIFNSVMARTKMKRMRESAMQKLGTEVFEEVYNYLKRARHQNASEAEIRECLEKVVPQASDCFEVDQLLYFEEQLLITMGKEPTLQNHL

NEK6 = NEK6 (Homo sapiens, UniProt Q9HC98); details: read-out: % Inhibition at 1 μM, NEK6
PLK1 = PLK1 (Homo sapiens, UniProt P53350); details: read-out: % Inhibition at 1 μM, PLK1
Sequence of PLK1 (P53350 whole entry): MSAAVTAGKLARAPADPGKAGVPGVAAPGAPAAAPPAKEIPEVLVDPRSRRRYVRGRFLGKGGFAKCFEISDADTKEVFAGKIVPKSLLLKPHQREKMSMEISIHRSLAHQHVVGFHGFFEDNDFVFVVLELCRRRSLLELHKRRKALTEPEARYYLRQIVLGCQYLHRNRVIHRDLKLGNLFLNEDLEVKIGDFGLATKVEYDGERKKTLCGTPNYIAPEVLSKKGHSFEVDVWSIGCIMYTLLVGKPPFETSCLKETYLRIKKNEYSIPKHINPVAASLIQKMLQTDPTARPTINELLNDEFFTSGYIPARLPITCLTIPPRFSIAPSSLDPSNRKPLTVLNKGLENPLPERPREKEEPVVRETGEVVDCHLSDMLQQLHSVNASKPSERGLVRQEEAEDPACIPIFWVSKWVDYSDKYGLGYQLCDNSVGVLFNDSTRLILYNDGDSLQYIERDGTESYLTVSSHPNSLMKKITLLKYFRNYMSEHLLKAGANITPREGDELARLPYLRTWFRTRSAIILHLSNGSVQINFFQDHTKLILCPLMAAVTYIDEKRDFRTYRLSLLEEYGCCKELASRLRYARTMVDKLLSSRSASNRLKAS

RET = RET (Homo sapiens, UniProt P07949); details: read-out: % Inhibition at 1 μM, RET
ROCK1 = ROCK1 (Homo sapiens, UniProt Q13464); details: read-out: % Inhibition at 1 μM, ROCK1
Sequence of ROCK1 (Q13464 whole entry, looked up): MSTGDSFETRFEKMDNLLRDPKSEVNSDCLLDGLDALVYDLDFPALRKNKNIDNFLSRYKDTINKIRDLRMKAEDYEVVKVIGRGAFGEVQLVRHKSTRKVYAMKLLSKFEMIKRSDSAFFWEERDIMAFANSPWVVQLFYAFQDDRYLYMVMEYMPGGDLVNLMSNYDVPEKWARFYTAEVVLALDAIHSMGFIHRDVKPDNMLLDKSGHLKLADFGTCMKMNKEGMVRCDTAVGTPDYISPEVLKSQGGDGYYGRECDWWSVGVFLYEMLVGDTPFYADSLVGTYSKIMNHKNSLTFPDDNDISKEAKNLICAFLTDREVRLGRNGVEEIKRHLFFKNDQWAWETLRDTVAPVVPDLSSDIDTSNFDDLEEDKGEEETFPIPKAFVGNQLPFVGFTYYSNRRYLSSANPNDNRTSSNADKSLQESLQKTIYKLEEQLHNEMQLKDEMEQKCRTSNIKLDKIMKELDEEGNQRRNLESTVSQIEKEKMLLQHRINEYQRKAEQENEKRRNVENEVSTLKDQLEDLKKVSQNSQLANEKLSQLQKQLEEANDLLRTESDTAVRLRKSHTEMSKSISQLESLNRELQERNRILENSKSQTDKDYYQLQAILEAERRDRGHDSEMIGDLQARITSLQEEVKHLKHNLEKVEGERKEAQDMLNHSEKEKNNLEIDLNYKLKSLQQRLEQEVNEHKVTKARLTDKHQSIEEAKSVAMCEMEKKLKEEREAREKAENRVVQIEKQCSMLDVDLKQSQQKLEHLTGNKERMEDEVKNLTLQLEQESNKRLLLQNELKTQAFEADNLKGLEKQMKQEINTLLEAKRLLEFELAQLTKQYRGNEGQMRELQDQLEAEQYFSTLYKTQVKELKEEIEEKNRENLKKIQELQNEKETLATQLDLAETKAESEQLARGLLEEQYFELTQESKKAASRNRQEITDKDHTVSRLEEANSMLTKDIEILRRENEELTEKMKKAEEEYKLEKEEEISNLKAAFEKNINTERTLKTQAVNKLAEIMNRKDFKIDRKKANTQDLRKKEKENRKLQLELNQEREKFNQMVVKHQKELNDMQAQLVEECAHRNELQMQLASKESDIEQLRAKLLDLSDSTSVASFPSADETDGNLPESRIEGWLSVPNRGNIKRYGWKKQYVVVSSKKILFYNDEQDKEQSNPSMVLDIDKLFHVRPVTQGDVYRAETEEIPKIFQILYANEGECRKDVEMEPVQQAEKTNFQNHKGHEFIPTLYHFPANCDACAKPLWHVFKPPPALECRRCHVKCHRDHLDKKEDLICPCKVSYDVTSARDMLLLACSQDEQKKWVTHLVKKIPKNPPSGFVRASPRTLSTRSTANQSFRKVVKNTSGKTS

TRKA = TRKA (Homo sapiens, UniProt P04629); details: read-out: % Inhibition at 1 μM, TRKA
WEE1 = WEE1 (Homo sapiens, UniProt P30291); details: read-out: % Inhibition at 1 μM, WEE1
Sequence of WEE1 (P30291 whole entry, looked up): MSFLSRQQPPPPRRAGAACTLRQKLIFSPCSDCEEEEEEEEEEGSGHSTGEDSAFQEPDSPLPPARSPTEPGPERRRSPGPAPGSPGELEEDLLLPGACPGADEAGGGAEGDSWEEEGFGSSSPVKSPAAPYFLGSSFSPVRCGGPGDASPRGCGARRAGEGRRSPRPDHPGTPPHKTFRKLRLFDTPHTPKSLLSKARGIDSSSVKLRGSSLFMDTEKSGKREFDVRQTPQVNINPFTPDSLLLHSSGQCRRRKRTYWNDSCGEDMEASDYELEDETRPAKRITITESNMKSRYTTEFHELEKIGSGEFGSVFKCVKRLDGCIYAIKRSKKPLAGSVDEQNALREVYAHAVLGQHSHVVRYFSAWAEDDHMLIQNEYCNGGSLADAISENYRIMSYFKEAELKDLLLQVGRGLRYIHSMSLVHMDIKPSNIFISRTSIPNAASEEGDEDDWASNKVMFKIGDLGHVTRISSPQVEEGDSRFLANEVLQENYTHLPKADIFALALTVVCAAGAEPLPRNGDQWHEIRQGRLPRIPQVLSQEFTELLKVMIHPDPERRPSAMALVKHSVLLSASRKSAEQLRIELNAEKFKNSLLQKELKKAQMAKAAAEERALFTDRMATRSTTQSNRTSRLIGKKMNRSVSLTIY

Sequence of AKT1 (P31749 whole entry): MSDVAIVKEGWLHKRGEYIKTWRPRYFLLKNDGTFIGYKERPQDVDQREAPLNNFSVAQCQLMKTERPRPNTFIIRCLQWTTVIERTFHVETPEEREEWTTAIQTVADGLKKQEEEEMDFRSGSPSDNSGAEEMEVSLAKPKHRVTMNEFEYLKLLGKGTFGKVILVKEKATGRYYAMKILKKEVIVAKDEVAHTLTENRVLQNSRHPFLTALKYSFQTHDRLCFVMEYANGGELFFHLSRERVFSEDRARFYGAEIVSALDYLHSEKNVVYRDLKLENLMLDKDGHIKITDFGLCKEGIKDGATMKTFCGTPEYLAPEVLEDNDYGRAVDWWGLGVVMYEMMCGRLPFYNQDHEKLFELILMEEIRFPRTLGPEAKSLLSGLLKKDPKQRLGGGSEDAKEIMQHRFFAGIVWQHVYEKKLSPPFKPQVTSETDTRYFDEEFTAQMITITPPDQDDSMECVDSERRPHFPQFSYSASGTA
Sequence of CDK1/cyclin B (P06493 whole entry, looked up): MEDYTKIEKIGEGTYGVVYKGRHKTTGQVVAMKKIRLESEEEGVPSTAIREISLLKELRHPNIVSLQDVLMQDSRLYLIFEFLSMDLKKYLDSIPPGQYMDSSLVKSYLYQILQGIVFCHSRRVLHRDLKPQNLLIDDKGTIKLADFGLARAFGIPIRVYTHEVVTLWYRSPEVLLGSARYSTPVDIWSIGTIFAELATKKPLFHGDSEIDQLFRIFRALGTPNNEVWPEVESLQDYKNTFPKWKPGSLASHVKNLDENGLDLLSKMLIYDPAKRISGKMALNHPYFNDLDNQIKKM

Cc1cc(Nc2cc(N3CCN(C)CC3)nc(Sc3ccc(NC(=O)C4CC4)cc3)n2)n[nH]1 [VX-680]
inhibition at 1 µM (AKT1): 3%
inhibition at 1 µM (CDK1/cyclin B): 5%
inhibition at 1 µM (CDK2/cyclin A): 7%
inhibition at 1 µM (CHK1): 16%
inhibition at 1 µM (CHK2): 4%
inhibition at 1 µM (NEK11): 11%
inhibition at 1 µM (NEK6): -5%
inhibition at 1 µM (PLK1): 0%
inhibition at 1 µM (RET): 96%
inhibition at 1 µM (ROCK1): -2%
inhibition at 1 µM (TRKA): 95%
inhibition at 1 µM (WEE1): 2%
